Patent US7307101B2, “Use of 20-HETE synthesizing enzyme inhibitors as therapy for cerebral vascular disease” (MCW Research Foundation, Inc., priority 2000, dated 2007)
“And” between values parts separate entries of the source, which are not always exact repeats. Identical values can stand only once.

Key:
CYP2C19 = biological target: T1, CYP2C19 (Homo sapiens, UniProt P33261); assay: CYP2C19 activity in human liver microsomes; type: in vitro ADME
T1 construct: The enzyme/substrate contained buffer, human liver microsomes and the following substrates; tissue Nippon Nosanko; host or cells: pooled human liver microsomes (15 donors)
Source text: (§1) Microsomes prepared from the livers of 15 humans was purchased from Nippon Nosanko.

[1] = biological target: human 20-HETE synthesizing enzyme; assay: Formation of 20-HETE by human renal microsomes; type: biochemical; conditions: read-out: IC50, formation of 20-HETE by human renal microsomes
Protocol: All reactions were terminated by acidification with 1% formic acid. Equal volume of acetonitrile was added and finally 50% acetonitrile mixtures were subjected to HPLC analysis.

[2] = biological target: 20-HETE synthesizing enzyme; assay: 20-HETE formation in rat renal microsomes ([3H]-AA, Example 3); type: biochemical
Protocol: All procedure was carried out at 4° C. Renal cortex was pooled from twenty male SHR rats (6 weeks of age). They were homogenized extensively in lysis buffer (20 mM HEPES, pH 7.4, 1 mM EDTA, 100 μM p-(amidinophenyl)metanesulfonyl fluoride and 250 mM sucrose), and centrifuged at 16,000×g for 10 min. Supernatant was further centrifuged at 16,000×g for 30 min. Soluble fraction was collected and centrifuged at 200,000×g for 30 min. The resulting pellet was suspended in 50 mM MOPS buffer.
The reaction was terminated by adding formic acid and acetonitrile to a final concentration of 1% and 50%, respectively.

CYP3A4 = CYP3A4 (Homo sapiens, UniProt P08684); assay: in vitro; conditions: microsomes
Source text: as §1

CYP2D6 = CYP2D6 (Homo sapiens, UniProt P10635); assay: in vitro
Source text: as §1

[3] = given systemically; cited from earlier work
[4] = Physiological parameters (MAP, endtidal pCO2) during the SAH experiment; type: in vivo, rat; conditions: rats, any time
Protocol: (§2) Surgical preparation. Rats were anesthetized with ketamine (Ketaject® 20 mg/kg i.m.) and thiobutabarbital sodium (Inactin® 50 mg/kg i.p.). A cannula was placed in the trachea and the rats were artificially ventilated using a small animal ventilator (SAR-830, CWE, Inc., Ardmore, Pa.) with a mixture of 30% O2 in N2. The femoral vein was cannulated for the infusion of drug and the rats received an i.v. infusion of 0.9% NaCl solution at a rate of […] to replace fluid losses. The femoral artery was cannulated for measurement of mean arterial pressure (MAP) and arterial blood gases. Endtidal partial pressure of carbon dioxide (pCO2) was controlled at 38 mmHg by adjusting the minute ventilation according to the reading of an CO2 analyzer (Capstar-100 IITC, Inc., Woodland Hills, Calif.). Blood samples were collected at the beginning and end of the experiment and analyzed using a blood gas analyzer (ABL 300, Radiometer, Copenhagen, Denmark) to validate the endtidal pCO2 readings. Anesthesia was maintained by administering additional amounts of thiobutabarbital (8 mg/kg i.v.) as needed. Rectal body temperature was maintained at 37±1° C.

20-HETE formation = conditions: read-out: IC50 for inhibition of 20-HETE formation; cited from earlier work
rats with SAH = assay: Effect on rCBF after SAH, drug given before SAH; type: in vivo, rat
Protocol: Animals. Experiments were performed on male Sprague-Dawley rats (9-12 weeks old), purchased from Harlan Sprague-Dawley, Inc. (Indianapolis, Ind.). The rats were housed in an Animal Care Facility at the Medical College of Wisconsin, which is approved by the American Association for the Accreditation of Laboratory Animal Care. All protocols involving animals received approval by the Animal Care Committee of the Medical College of Wisconsin.
as §2
Induction of SAH and measurement of cerebral blood flow. SAH was induced by injection of 0.3 ml autologous arterial blood into the Cisterna Magna using a modification of a posterior cranio-cervical approach of a model of SAH. Delgado T J et al., Stroke 16: 595-602 (1985); Solomon R A et al., Stroke 16: 58-64 (1985). The head of the rat was placed in a stereotactic head holder and the atlanto-occipital membrane was exposed by bluntly separating the overlying neck muscles in the midline. The occipital bone and the atlas were visualized. A 30 gauge needle attached to PE-10 was inserted using a stereomicroscope into the Cistema Magna by penetrating the atlanto-occipital membrane. Then, 0.3 ml of freshly drawn unheparinized arterial blood was injected into the Cistema Magna at a rate of 35 μl/min using a syringe pump. This created a massive SAH that was confirmed in all rats at autopsy. Blood was found overlying the cerebello-medullary junction posteriorly and around the basal artery and the vessels of the Circle of Willis.
Cerebral blood flow (CBF) was continuously measured using laser Doppler flowmetry through a thinned cranial window. […] A PF 103 laser Doppler flow (LDF) probe was positioned over the cranial window and CBF was monitored using a PF-3 laser Doppler flowmeter (Perimed, Stockholm, Sweden).
Other animals received 17-ODYA (1.5 nmol) or vehicle in a volume of 50 μl that was injected directly into the Cistema Magna using a micromanipulator and a 30 gauge needle. The CBF recorded over the last 5 minutes of the control period immediately before initiation of SAH served as the control value. […] CBF was recorded for 2 min intervals at 10, 20, 30, 60, 90 and 120 minutes after completion of the injection of the blood. The CBF data are expressed as percentage change from control.

20-HETE in CSF = assay: 20-HETE concentration in CSF after SAH; type: in vivo, rat; conditions: rats, 2 hr after SAH, drug given prior to SAH
Protocol: Measurement of 20-HETE in CSF. At the end of each experiment, CSF was collected from the Cisterna Magna using a 1 ml syringe and a 30 gauge needle. […] 20-HETE concentration in CSF was measured using a new fluorescent HPLC assay that was recently described. […] Briefly, 50 ng of an internal standard 20-hydroxyeicosa-6(Z), 15(Z)-dienoic acid (WIT-002) was added to the CSF samples (50 μl). The samples were extracted with 1 mL of ethyl acetate, the extract was dried under argon and the lipid fraction was purified on a Sep-Pak Vac™ column (cat. no. WAT054955, Waters Corporation, Milford, Mass.). […] N,N-diisopropylethylamine (10 μl) was added to catalyze the reaction. The sample was reacted for 30 min at room temperature. […] The amount of 20-HETE in a sample was determined by comparing the area of the 20-HETE peak to that of the internal standard.

CYP2C9 = CYP2C9 (Homo sapiens, UniProt P11712); assay: in vitro
Source text: as §1

cerebral arteries = conditions: read-out: EC50, constriction of cerebral arteries; cited from earlier work
cerebral blood flow = conditions: intracerebroventricular injection; cited from earlier work
[5] = human, microsomes, % Inhibition (duplicate) CYP2D6
[6] = positive control, concentration not given
[7] = only at very high concentrations

Chain of CYP2C9 (P11712 whole entry): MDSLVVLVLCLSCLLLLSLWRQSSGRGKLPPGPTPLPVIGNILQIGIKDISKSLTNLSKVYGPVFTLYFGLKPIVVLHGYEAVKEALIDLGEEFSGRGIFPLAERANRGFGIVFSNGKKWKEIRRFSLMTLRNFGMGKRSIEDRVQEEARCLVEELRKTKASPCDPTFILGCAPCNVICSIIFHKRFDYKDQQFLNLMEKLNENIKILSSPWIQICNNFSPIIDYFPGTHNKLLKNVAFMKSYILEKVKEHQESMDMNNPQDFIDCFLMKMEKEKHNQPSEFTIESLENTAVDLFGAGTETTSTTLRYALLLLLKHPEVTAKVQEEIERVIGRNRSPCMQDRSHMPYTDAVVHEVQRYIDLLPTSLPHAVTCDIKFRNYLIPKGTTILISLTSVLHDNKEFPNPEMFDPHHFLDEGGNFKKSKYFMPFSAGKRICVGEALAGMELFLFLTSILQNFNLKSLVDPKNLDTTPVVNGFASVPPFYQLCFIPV
Chain of CYP2D6 (P10635 whole entry): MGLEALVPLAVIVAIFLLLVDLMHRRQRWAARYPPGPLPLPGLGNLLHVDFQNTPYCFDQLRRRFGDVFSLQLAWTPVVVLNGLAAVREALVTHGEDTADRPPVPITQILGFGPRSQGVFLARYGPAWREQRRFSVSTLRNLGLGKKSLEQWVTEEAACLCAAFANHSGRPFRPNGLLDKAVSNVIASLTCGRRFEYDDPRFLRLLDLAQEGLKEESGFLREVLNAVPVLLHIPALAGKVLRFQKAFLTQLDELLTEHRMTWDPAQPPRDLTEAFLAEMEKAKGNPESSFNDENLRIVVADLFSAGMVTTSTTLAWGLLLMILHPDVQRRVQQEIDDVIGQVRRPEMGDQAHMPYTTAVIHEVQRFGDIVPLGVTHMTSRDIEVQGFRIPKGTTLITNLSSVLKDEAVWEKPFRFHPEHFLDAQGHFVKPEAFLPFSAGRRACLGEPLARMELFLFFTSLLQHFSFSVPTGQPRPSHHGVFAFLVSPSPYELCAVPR
T1 sequence (P33261 whole entry): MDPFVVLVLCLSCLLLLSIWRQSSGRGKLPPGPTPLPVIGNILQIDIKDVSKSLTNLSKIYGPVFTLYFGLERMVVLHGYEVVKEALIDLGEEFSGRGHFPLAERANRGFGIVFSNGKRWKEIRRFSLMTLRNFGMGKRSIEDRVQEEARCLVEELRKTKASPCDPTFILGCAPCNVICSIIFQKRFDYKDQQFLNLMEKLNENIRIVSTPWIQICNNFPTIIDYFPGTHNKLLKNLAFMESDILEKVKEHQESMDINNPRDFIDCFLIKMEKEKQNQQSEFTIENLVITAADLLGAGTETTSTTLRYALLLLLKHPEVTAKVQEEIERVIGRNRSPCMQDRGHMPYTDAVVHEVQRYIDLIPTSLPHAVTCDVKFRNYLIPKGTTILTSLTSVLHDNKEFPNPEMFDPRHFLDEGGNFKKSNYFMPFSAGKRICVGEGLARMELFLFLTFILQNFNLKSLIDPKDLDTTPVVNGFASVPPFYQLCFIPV
Chain of CYP3A4 (P08684 whole entry): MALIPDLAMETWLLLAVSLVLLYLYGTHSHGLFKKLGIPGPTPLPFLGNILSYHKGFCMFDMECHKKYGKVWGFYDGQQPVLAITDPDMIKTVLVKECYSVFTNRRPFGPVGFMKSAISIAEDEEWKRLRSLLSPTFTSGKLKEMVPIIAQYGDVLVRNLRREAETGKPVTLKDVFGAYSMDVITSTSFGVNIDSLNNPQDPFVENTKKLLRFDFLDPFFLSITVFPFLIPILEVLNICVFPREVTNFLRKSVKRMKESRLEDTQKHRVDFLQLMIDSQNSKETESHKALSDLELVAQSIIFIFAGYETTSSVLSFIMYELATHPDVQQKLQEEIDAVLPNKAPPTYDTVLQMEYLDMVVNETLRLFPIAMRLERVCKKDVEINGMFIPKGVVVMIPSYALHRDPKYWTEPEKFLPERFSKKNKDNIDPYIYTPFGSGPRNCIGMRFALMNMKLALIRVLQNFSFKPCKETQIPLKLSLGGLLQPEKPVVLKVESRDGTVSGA

Nn1nnc2ccccc21 [1-ABT, 1-aminobenzotriazole]
% Inhibition (duplicate) CYP2C19 (CYP2C19; inhibitor 100 μM, 100 µM): 40-80% and 75% | IC50 [1]: 38.5 ± 14.9 µM | IC50, formation of both EETs and 20-HETE ([2]; SHR rat renal microsomes, nonselective inhibitor): approximately 20 μg/ml | IC50 ([2]; read-out: IC50, formation of both EETs and 20-HETE (molar), SHR rat renal microsomes, nonselective inhibitor): ~150 µM | % Inhibition (duplicate) CYP3A4 (CYP3A4; 100 µM): 81% | % Inhibition (duplicate) CYP2D6 (CYP2D6; human, microsomes, 100 µM): 42% | inhibition at 100 µM (CYP2D6; [5]): 40 to 80%

C#CCCCCCCCCCCCCCCCC(=O)O [17-ODYA, 17-Octadecynoic acid]
crossing of the blood brain barrier [3]: does not cross the blood brain barrier | MAP (blood pressure) versus vehicle [4]: no difference | endtidal pCO2 versus vehicle [4]: no significant differences | IC50 (20-HETE formation): 1 µM | inhibition at 10 µM (CYP2C19; human, human liver microsomes, probe 14C-(S)-mephenyloin (4′-hydroxylation), inhibitor 10 μM, read-out: % Inhibition (duplicate) CYP2C19): 10% | fall in cerebral blood flow following SAH (rats with SAH; 1.5 nmol into the Cisterna Magna of rats): completely blocked | reduction of the initial fall in rCBF at 10 min (rats with SAH; rats pretreated before SAH, HET0016 10 mg/kg i.v. 30 min prior, 17-ODYA 1.5 nmol intrathecally): about 40% | time after induction of SAH within which rCBF recovered fully to values not different from control (rats with SAH; rats pretreated before SAH, HET0016 10 mg/kg i.v., 17-ODYA 1.5 nmol intrathecally): ≤ 90 min | IC50 [1]: 1.8 ± 0.8 µM | concentration of 20-HETE in the CSF versus vehicle (20-HETE in CSF): significantly lower concentration | % Inhibition (duplicate) CYP3A4 (CYP3A4; 10 µM): 29% | inhibition at 10 µM (CYP3A4; % Inhibition (duplicate) CYP3A4): 20 to 30% | inhibition at 10 µM (CYP2D6; [5]): -3% | % Inhibition (duplicate) CYP2C9 (CYP2C9; human, microsomes, 10 µM): 23% | inhibition at 10 µM (CYP2C9; human, microsomes, % Inhibition (duplicate) CYP2C9): 20 to 30%

O=C(O)CCCC=CCC=CCC=CCC=CCCCCCO [20-HETE, 20-hydroxyeicosetetraenoic acid]
EC50 (cerebral arteries): < 0.01 µM

CS(=O)(=O)NC(=O)CCCCCCCCCC=C(Br)Br [DDMS]
crossing of the blood brain barrier [3]: does not cross the blood-brain barrier | IC50 (20-HETE formation): 3 µM | effect on baseline cerebral blood flow (cerebral blood flow): no effect

C=C[C@H]1C[N@@]2CC[C@H]1C[C@@H]2[C@@H](O)c1ccnc2ccc(OC)cc12 [Quinidine]
% Inhibition (duplicate) CYP2D6 (CYP2D6; [6]): 91%

Clc1ccc(COC(Cn2ccnc2)c2ccc(Cl)cc2Cl)c(Cl)c1 (stereo not drawn) [miconazole]
concentrations at which the formation of 20-HETE was inhibited [2, 7]: 10 to 20 µg/mL | concentrations at which the formation of 20-HETE was inhibited (molar) [2, 7]: 21 to 42 µM

Nc1ccc(S(=O)(=O)Nc2ccnn2-c2ccccc2)cc1 [sulfaphenazol]
% Inhibition (duplicate) CYP2C9 (CYP2C9; [6]): 91%
